Among the data in patent publication US12448394B2, “Heterocyclic pyrazole derivatives as type III receptor tyrosine kinase inhibitors” (DEVELOPMENT CENTER FOR BIOTECHNOLOGY, priority 2019, dated 2025) are IC50 values, retold here.

Bounds are passed on as bounds.

In experiment [1] the test system is A375 melanoma cell with BRAF V600E mutation. Description: A375 cell proliferation assay (counter screen). It counts as cell-based, human. The settings on record: Homo sapiens, A-375, A375 cells, 72 hours treatment, CellTiter96, read-out: anti-proliferation activity A375 BRAF V600E, IC50 ranking. As to the method: (§1) Inhibitions of cell growths by compounds were measured using CellTiter™-96 assay. The cytotoxicities of compounds of the invention were evaluated in cell line panels with different signaling pathway dependencies, including MV4-11 human acute myeloid leukemia cell with FLT3-ITD mutation, Molm-14 human acute myeloid leukemia cell with FLT3-ITD mutation, THP-1 human acute monocytic leukemia cell with NRAS G12D mutation, A375 melanoma cell with BRAF V600E mutation, and HCC827 NSCLC cell with EGFR exon 19 deletion mutation.
A375 cells are melanoma cells encoding BRFA V600E mutation, which renders the cell growth dependent on BRAF signaling instead of class III RTKs signaling. A375 cells (catalog #CRL-1619) were obtained from the ATCC. Briefly, cells were cultured in DMEM containing 10% FBS and incubated at 37° C. in 5% CO2 atmosphere. Cells were allowed to expand until reaching saturation, at which point they were sub-cultured or harvested for assay use.
(§2) MV4-11, Molm-14, THP-1, A375, and HCC827 cells were seeded into 96-well plates at 6500, 25000, 5000, 2000 and 8000 cells/well, respectively, and incubated at 37° C., 5% CO2 overnight. Then, these seeded cells were treated with increasing concentrations of the test compounds and incubated for another 72 hours. At the end of the incubation, CellTiter96® AQueous One Solution Reagent (Promega, […]) was added and incubated for the additional 2˜4 hours. Cell viability was determined by measuring absorbance at 490 nm using EMax® microplate reader (Molecular Devices, San Jose, CA, USA).
(In general: The purpose of a counterscreen is to sort out artefacts and off-target activity.)

Another experiment deals with T1, MET kinase (Homo sapiens, UniProt P08581).
T1 construct: purchased SignalChem
T1 sequence (P08581 25-1390): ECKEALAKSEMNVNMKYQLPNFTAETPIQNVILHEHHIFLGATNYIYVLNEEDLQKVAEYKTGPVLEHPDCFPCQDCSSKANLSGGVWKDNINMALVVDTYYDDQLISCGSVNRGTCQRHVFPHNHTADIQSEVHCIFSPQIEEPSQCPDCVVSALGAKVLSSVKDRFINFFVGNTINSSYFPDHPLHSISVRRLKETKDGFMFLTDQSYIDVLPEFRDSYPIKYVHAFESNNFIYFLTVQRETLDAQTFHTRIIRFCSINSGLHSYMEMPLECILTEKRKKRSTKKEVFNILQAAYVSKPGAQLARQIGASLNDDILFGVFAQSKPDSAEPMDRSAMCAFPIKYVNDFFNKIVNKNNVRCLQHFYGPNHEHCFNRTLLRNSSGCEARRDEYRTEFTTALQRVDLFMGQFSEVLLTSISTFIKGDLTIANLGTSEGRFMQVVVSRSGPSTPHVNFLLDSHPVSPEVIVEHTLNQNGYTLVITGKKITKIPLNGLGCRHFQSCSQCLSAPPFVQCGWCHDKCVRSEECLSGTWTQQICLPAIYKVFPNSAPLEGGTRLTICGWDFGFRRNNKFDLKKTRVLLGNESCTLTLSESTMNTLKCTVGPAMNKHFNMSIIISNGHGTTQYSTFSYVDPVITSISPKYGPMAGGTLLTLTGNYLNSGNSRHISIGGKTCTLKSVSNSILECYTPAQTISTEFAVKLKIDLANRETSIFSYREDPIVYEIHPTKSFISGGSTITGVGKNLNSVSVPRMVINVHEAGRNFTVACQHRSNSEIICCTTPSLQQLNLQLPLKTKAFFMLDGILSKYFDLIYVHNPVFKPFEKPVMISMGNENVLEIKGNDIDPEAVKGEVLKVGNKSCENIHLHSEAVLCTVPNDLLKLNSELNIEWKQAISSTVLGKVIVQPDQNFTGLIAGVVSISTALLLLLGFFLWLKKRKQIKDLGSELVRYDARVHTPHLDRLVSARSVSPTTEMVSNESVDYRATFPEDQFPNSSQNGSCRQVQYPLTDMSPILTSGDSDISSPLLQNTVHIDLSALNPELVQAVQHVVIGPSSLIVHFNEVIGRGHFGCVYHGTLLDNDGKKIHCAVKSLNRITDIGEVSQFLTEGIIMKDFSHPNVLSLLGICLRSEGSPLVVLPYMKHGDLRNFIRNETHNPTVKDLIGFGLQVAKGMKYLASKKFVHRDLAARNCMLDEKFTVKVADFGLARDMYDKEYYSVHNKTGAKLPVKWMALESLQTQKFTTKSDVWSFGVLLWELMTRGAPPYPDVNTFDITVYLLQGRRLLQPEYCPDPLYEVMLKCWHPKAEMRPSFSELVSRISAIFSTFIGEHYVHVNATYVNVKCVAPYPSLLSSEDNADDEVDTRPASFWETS
The experiment in a line: MET kinase assay (AlphaScreen, counter screen). Type of experiment: biochemical. The settings on record: read-out: Ranking of IC50 values, MET. The procedure: Because MET kinase belonged to Class VIII RTK family have one transmembrane a chain linked with one extracellular β chain which is different form Class III RTK family with 5 Immunoglobin-like extracellular domains. Standard assay conditions were 1 ng of recombinant MET kinase (SignalChem) with 3 ng Biotin-conjugated Poly-(Glu 4: Tyr 1) (Cisbio) in the assay buffer ([…], 10 mM MOPs, pH 7.0, 0.21 mM EDTA, 0.5% glycerol, 1 mg/mL BSA, 0.01% 2-mercaptoethanol, 0.001% Brij35, 10 mM MgCl2) in a final volume of 25 μL. Reactions were incubated at 30° C. for 45 min and stopped by adding 5 μL of 50 mM EDTA. Analysis of resulting product using an AlphaScreen kit and counted with Enspire Alpha (PerkinElmer). […] The IC50 values of inhibitors were determined after carrying out assays with each compound at serially diluted concentrations in duplication. The results were analyzed using linear regression software (GraphPad Prism 5; GraphPad Software Inc.)
A general note: Bead proximity is the source of the signal in Alpha formats.

A further experiment deals with T2, PDGFRα kinase (Homo sapiens, UniProt P16234).
T2 construct: purchased SignalChem
T2 sequence (P16234 24-1089): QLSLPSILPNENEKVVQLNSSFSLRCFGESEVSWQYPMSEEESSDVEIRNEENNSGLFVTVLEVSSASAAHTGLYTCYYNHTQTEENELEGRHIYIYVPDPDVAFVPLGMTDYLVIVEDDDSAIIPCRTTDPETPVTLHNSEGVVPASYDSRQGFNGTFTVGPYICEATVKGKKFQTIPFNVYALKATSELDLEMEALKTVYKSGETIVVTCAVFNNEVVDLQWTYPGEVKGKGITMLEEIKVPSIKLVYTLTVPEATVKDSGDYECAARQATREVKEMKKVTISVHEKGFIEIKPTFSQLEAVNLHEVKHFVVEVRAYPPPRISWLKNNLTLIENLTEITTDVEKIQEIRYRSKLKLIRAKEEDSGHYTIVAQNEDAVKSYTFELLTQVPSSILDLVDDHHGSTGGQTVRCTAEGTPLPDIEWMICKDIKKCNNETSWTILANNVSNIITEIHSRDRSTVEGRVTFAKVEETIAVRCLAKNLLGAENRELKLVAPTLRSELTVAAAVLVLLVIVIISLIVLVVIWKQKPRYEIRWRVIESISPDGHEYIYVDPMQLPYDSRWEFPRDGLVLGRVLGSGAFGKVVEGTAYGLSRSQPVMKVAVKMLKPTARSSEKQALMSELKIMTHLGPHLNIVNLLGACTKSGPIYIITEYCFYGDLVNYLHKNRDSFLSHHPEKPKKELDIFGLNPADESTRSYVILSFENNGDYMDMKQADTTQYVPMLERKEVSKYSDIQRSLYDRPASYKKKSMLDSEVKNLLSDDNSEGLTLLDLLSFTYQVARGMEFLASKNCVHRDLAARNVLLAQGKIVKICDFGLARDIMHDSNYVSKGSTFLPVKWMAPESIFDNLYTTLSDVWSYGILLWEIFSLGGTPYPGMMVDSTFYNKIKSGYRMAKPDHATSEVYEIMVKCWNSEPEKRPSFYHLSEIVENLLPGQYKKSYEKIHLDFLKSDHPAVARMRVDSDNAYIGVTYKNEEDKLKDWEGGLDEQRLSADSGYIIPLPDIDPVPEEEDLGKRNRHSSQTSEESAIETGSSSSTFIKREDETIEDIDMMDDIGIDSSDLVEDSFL
Description: PDGFRα kinase assay (AlphaScreen). It counts as biochemical. The note with it: read-out: Ranking of IC50 values, PDGFRα. The procedure: Inhibition of PDGFRα kinase activity by a test compound disclosed herein was estimated by AlphaScreen (PerkinElmer). Standard assay conditions were 1.5 ng of recombinant PDGFRα kinase (SignalChem) with 6 ng Biotin-conjugated Poly-(Glu 4: Tyr 1) (Cisbio) in the assay buffer (10 μM ATP, 10 mM MOPs, pH 7.0, 0.21 mM EDTA, 0.5% glycerol, 1 mg/mL BSA, 0.01% 2-mercaptoethanol, 0.001% Brij35, 10 mM MgCl2) in a final volume of 25 μL. Reactions were incubated at 30° C. for 30 min and stopped by adding […] of 50 mM EDTA. Analysis of resulting product using an AlphaScreen kit and counted with Enspire Alpha (PerkinElmer). […] The IC50 values of inhibitors were determined after carrying out assays with each compound at serially diluted concentrations in duplication. The results were analyzed using linear regression software (GraphPad Prism 5; GraphPad Software Inc.)

Experiment [2] has as its system THP-1 human acute monocytic leukemia cell with NRAS G12D mutation. Description: THP-1 cell proliferation assay (counter screen). The note with it: Homo sapiens, THP-1 cells, 72 hours treatment, CellTiter96, read-out: anti-proliferation activity THP-1 NRAS N12D, IC50 ranking. Type of experiment: cell-based. The procedure: as §1
THP-1 cells are human acute monocytic leukemia cells with NRAS G12D mutation, which renders the cell growth independent of class III RTKs signaling. THP-1 cells (catalog #TIB-202) were obtained from the ATCC. Briefly, cells were grown in RPMI 1640 medium supplemented with 10% heat inactivated fetal bovine serum and 0.05 mM 2-mercaptoethanol and incubated at 37° C. in 5% CO2 atmosphere. Cells were allowed to expand until reaching saturation, at which point they were sub-cultured or harvested for assay use.
as §2

As to `CN1CCN(Cc2cccc(-c3cc4c(s3)Cc3c(-c5ccc6cnn(C)c6c5)n[nH]c3-4)c2)CC1` [Compound 14, 3-(1-methyl-1H-indazol-6-yl)-6-(3-((4-methylpiperazin-1-yl)methyl)phenyl)-1,4-dihydrothieno [2′,3′:4,5]cyclopenta[1,2-c] pyrazole], the IC50 was 1000 to 10000 nM in experiment [1], greater than 1000 nM at MET kinase, 10 to 30 nM at PDGFRα kinase and greater than 10000 nM in experiment [2].

For the compound `Cn1ncc2ccc(-c3n[nH]c4c3Cc3sc(-c5ccc(CN6CCCC6=O)cc5)cc3-4)cc21` [Compound 64, 1-(4-(3-(1-methyl-1H-indazol-6-yl)-1,4-dihydro-thieno[2′,3′:4,5]cyclopenta [1,2-c]pyrazol-6-yl)benzyl)pyrrolidin-2-one], the IC50 in experiment [1] was greater than 10000 nM; at MET kinase, greater than 1000 nM; on PDGFRα kinase it was 10 to 30 nM; in experiment [2], greater than 10000 nM.

As for `Cn1ncc2ccc(-c3n[nH]c4c3Cc3sc(-c5cc(F)c(CN6CCOCC6)c(F)c5)cc3-4)cc21` [Compound 53, 4-(2,6-difluoro-4-(3-(1-methyl-1H-indazol-6-yl)-1,4-dihydrothieno [2′,3′:4,5]cyclopenta [1,2-c]pyrazol-6-yl)benzyl)morpholine], the IC50 is greater than 10000 nM in experiment [1], greater than 1000 nM at MET kinase, 30 to 100 nM on PDGFRα kinase and greater than 10000 nM in experiment [2].

Consider `COc1cc(-c2cc3c(s2)Cc2c(-c4ccc5cnn(C)c5c4)n[nH]c2-3)ccc1CN1CCOCC1` [Compound 24, 4-(2-methoxy-4-(3-(1-methyl-1H-indazol-6-yl)-1,4-dihydrothieno[2′,3′:4,5]cyclopenta[1,2-c]pyrazol-6-yl)benzyl)morpholine], for which the IC50 in experiment [1] is greater than 10000 nM; on MET kinase it was greater than 1000 nM; at PDGFRα kinase, 1 to 10 nM; in experiment [2] it was greater than 10000 nM.

With `Cn1ncc2ccc(-c3n[nH]c4c3Cc3sc(-c5ccc(OCCN6CCOCC6)cc5)cc3-4)cc21` [Compound 69, 4-(2-(4-(3-(1-methyl-1H-indazol-6-yl)-1,4-dihydro-thieno[2′,3′:4,5]cyclopenta [1,2-c]pyrazol-6-yl)phenoxy)ethyl)morpholine], the IC50 in experiment [1] was greater than 10000 nM; at MET kinase it was greater than 1000 nM; on PDGFRα kinase, 10 to 30 nM; in experiment [2], greater than 10000 nM.

`COc1cc(-c2cc3c(s2)Cc2c(-c4ccc5cnn(C)c5c4)n[nH]c2-3)ccc1C(=O)N1CCOCC1` [Compound 43, (2-methoxy-4-(3-(1-methyl-1H-indazol-6-yl)-1,4-dihydrothieno [2′,3′:4,5]cyclopenta [1,2-c]pyrazol-6-yl)phenyl)(morpholino) methanone]: the IC50 in experiment [1] was greater than 10000 nM; at MET kinase, greater than 1000 nM; on PDGFRα kinase, 1 to 10 nM; in experiment [2], greater than 10000 nM.

As for `Cn1ncc2ccc(-c3n[nH]c4c3Cc3sc(-c5ccc(CN6CCOCC6)s5)cc3-4)cc21` [Compound 51, 4-((5-(3-(1-methyl-1H-indazol-6-yl)-1,4-dihydro-thieno[2′,3′:4,5]cyclopenta [1,2-c]pyrazol-6-yl)thiophen-2-yl)methyl) morpholine], the IC50 in experiment [1] is greater than 10000 nM; on MET kinase, greater than 1000 nM; at PDGFRα kinase, 10 to 30 nM; in experiment [2], greater than 10000 nM.

As to `C[C@H]1COCCN1Cc1ccc(-c2cc3c(s2)Cc2c(-c4ccc5cnn(C)c5c4)n[nH]c2-3)cc1` [Compound 75, (S)-3-methyl-4-(4-(3-(1-methyl-1H-indazol-6-yl)-1,4-dihydrothieno [2′,3′:4,5]cyclopenta [1,2-c]pyrazol-6-yl)benzyl)morpholine], the IC50 in experiment [1] is greater than 10000 nM; at MET kinase, greater than 1000 nM; on PDGFRα kinase, 1 to 10 nM; in experiment [2] it was greater than 10000 nM.

`C[C@@H]1CN(Cc2ccc(-c3cc4c(s3)Cc3c(-c5ccc6cn[nH]c6c5)n[nH]c3-4)cn2)C[C@H](C)O1` [Compound 16, (2R,6S)-4-((5-(3-(1H-indazol-6-yl)-1,4-dihydro-thieno[2′,3′:4,5]cyclopenta [1,2-c]pyrazol-6-yl)pyridin-2-yl)methyl)-2,6-dimethylmorpholine]: the IC50 in experiment [1] was greater than 10000 nM; at MET kinase, greater than 1000 nM; at PDGFRα kinase it was 1 to 10 nM; in experiment [2], greater than 10000 nM.

Turning to `Cn1ncc2ccc(-c3n[nH]c4c3Cc3sc(-c5ccc(CN6CCC(F)(F)C6)cc5)cc3-4)cc21` [Compound 67, 6-(4-((3,3-difluoro-pyrrolidin-1-yl)methyl)phenyl)-3-(1-methyl-1H-indazol-6-yl)-1,4-dihydro-thieno[2′,3′:4,5]cyclopenta [1,2-c]pyrazole], the IC50 in experiment [1] is greater than 10000 nM; at MET kinase, greater than 1000 nM; on PDGFRα kinase, 10 to 30 nM; in experiment [2], greater than 10000 nM.

Take `COC1CN(Cc2ccc(-c3cc4c(s3)Cc3c(-c5ccc6cnn(C)c6c5)n[nH]c3-4)cc2)C1` [Compound 105, 6-(4-((3-methoxyazeti-din-1-yl)methyl)phenyl)-3-(1-methyl-1H-indazol-6-yl)-1,4-dihydrothieno [2′,3′:4,5]cyclopenta [1,2-c]pyrazole]: the IC50 is greater than 10000 nM in experiment [1], 300 to 1000 nM on MET kinase, 1 to 10 nM at PDGFRα kinase and greater than 10000 nM in experiment [2].

`CN(C)c1ccc(-c2cc3c(s2)Cc2c(-c4ccc5cnn(C)c5c4)n[nH]c2-3)cn1` [Compound 5, N,N-dimethyl-5-(3-(1-methyl-1H-indazol-6-yl)-1,4-dihydrothieno [2′,3′:4,5]cyclopenta[1,2-c]pyrazol-6-yl)pyridin-2-amine]: the IC50 is greater than 10000 nM in experiment [1], greater than 1000 nM on MET kinase, 10 to 30 nM at PDGFRα kinase and greater than 10000 nM in experiment [2].

With `Cn1ncc2ccc(-c3n[nH]c4c3Cc3sc(N5CCOCC5)cc3-4)cc21` [Compound 78, 4-(3-(1-methyl-1H-indazol-6-yl)-1,4-dihydro-thieno[2′,3′:4,5]cyclopenta [1,2-c]pyrazol-6-yl) morpholine], the IC50 in experiment [1] is 1000 to 10000 nM; at MET kinase it was greater than 1000 nM; at PDGFRα kinase, 1 to 10 nM; in experiment [2], greater than 10000 nM.

On to `Cn1ncc2ccc(-c3n[nH]c4c3Cc3sc(-c5ccc(CC6CCOCC6)cc5)cc3-4)cc21` [Compound 77, 3-(1-methyl-1H-indazol-6-yl)-6-(4-((tetrahydro-2H-pyran-4-yl)methyl)phenyl)-1,4-dihydrothieno [2′,3′:4,5]cyclopenta [1,2-c]pyrazole], for which the IC50 in experiment [1] was 1000 to 10000 nM; on MET kinase, greater than 1000 nM; at PDGFRα kinase, 30 to 100 nM; in experiment [2] it was 1000 to 10000 nM.

Take `Cn1ncc2ccc(-c3n[nH]c4c3Cc3sc(-c5ccc(CN6CCOCC6)cn5)cc3-4)cc21` [Compound 95, 4-((6-(3-(1-methyl-1H-indazol-6-yl)-1,4-dihydro-thieno[2′,3′:4,5]cyclopenta [1,2-c]pyrazol-6-yl)pyridin-3-yl)methyl) morpholine]: the IC50 is greater than 1000 nM at MET kinase and 1 to 10 nM on PDGFRα kinase.
